According to patent US9169252B2 (BRISTOL-MYERS SQUIBB COMPANY, priority 2014, dated 2015):
Like-named read-outs stand apart in the source and are kept apart here.

What was measured:
IRAK4 = IRAK4 (Homo sapiens (Human), UniProt Q9NWZ3); assay: IRAK4 Inhibition Assay; assay type: biochemical; conditions: ATP 500 μM, read-out: IRAK4 IC50
Summary of the method: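 IRAK4 combined with fluorescent substrate and compounds, reacted 60 min at room temperature, stopped with 35 mM EDTA. Substrate and phosphorylated product separated electrophoretically on a Caliper LabChip 3000 mobility-shift reader.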

[1] = tested on: TLR2 induced IL-6 in peripheral blood mononuclear cells (PBMCs); assay: PBMC TLR2 Induced IL-6 Assay; assay type: cell-based, human; conditions: IL-6 by ELISA; for EC50: read-out: Cell EC50; for IC50: read-out: Cell IC50
Summary of the method: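 Lipoteichoic acid at 10 µg/ml served as TLR2 stimulus for 5 hours, following a 30-minute compound pretreatment at 37° C. Cells were Ficoll-isolated human PBMCs, 250000 cells/well, cultured in RPMI plus 10% heat-inactivated FCS.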

[2] = Homo sapiens, PBMC, PBMC TLR2 Induced IL-6 Assay, lipoteichoic acid stimulation
[3] = Homo sapiens, PBMC, human PBMCs, lipoteichoic acid stimulated
[4] = human PBMCs, lipoteichoic acid stimulated

IRAK4, sequence (Q9NWZ3 whole entry, species assumed): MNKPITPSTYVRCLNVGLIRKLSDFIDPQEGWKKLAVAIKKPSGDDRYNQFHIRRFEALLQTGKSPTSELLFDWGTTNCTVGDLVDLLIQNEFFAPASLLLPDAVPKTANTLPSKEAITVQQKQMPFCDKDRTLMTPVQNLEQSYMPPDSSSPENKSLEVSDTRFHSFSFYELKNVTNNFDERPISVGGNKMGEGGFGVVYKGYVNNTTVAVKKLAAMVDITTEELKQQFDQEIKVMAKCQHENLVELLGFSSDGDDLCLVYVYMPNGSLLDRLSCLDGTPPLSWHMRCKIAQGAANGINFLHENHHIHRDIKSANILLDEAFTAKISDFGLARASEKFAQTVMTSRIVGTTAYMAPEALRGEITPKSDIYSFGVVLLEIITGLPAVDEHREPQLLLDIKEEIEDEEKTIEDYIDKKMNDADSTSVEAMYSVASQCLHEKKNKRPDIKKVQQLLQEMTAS

Compound	IC50 (IRAK4; IRAK4 Inhibition Assay)	EC50 [1, 2]	IC50 [1, 2]	IC50 (IRAK4; IRAK4 0.6 nM)	other results
CC(C)(O)[C@H](F)CNC(=O)c1cnc(-n2ccc3cc(C#N)cnc32)cc1NC1CCCC1 [Example 10, (R)-6-(5-cyano-1H-pyrrolo[2,3-b]pyridin-1-yl)-4-(cyclopentylamino)-N-(2-fluoro-3-hydroxy-3-methylbutyl)nicotinamide]	1.8 nM	63 nM	79 nM	–	–
CC(C)(F)[C@H](F)CNC(=O)c1cnc(-n2ncc3cc(C#N)cnc32)cc1NC12CC3CC(CC(O)(C3)C1)C2 [Example 636]	–	–	–	3 nM	IC50 [1, 3]: 293 nM
CC(CF)Nc1cc(-n2ccc3cc(C#N)cnc32)ncc1C(=O)NC[C@@H](F)C(C)(C)O (stereo partly drawn) [Example 78, 6-(5-cyano-1H-pyrrolo[2,3-b]pyridin-1-yl)-N—((R)-2-fluoro-3-hydroxy-3-methylbutyl)-4-((1-fluoropropan-2-yl)amino)nicotinamide]	2.9 nM	–	63 nM	–	–
COCCn1cc(Nc2cc(-n3cnc4cc(Cl)cnc43)ncc2C(=O)NC[C@@H](F)C(C)(C)O)cn1 [Example 366]	7.9 nM	–	205 nM	–	–
CC(C)(O)[C@H](F)CNC(=O)c1cnc(-n2ncc3cc(C#N)cnc32)cc1N[C@@H]1C[C@H]1CO (single isomer, unassigned) [Example 642]	–	–	–	4.8 nM	IC50 [1, 3]: 197 nM
CC(C)Nc1cc(-n2ncc3cc(C#N)cnc32)ncc1C(=O)Nc1cnn(C2COC2)c1 [Example 268]	10.6 nM	–	171 nM	–	–
CC(C)(O)[C@H](F)CNC(=O)c1cnc(-n2ncc3cc(C#N)cnc32)cc1NCC(F)(F)C(C)(C)O [Example 169, (R)-6-(5-Cyano-1H-pyrazolo[3,4-b]pyridin-1-yl)-4-((2,2-difluoro-3-hydroxy-3-methylbutyl)amino)-N-(2-fluoro-3-hydroxy-3-methylbutyl)nicotinamide]	3.3 nM	204 nM	–	–	–
CC(C)Nc1cc(-n2ncc3cc(C#N)cnc32)ncc1C(=O)NCCC(C)(F)F [Example 332]	13 nM	–	159 nM	–	–
CS(=O)(=O)[C@H]1CC[C@H](NC(=O)c2cnc(-n3ccc4cc(C#N)cnc43)cc2Nc2cccc(C(N)=O)c2)CC1 [Example 105, 4-((3-Carbamoylphenyl)amino)-6-(5-cyano-1H-pyrrolo[2,3-b]pyridin-1-yl)-N-((trans)-4-(methylsulfonyl)cyclohexyl)nicotinamide]	3.9 nM	437 nM	–	–	–
CC(C)(O)[C@H](F)CNC(=O)c1cnc(-n2ncc3cc(F)cnc32)cc1NC1CCC(F)C1 (stereo partly drawn) [Example 620]	–	–	–	3.4 nM	EC50 [1, 4]: 114 nM
CC(C)(O)[C@H](F)CNC(=O)c1cnc(-n2ncc3cc(Cl)cnc32)cc1Nc1cnn(C2CCOCC2)c1 [Example 352]	6.5 nM	–	170 nM	–	–
CC(C)(O)[C@H](F)CNC(=O)c1cnc(-n2ccc3cc(C#N)cnc32)cc1NCCN1CCOCC1 [Example 480]	–	–	–	4 nM	EC50 [1, 3]: 170 nM; IC50 [1, 3]: 270 nM
CC(C)Nc1cc(-n2ncc3cc(C#N)cnc32)ncc1C(=O)NCCC(C)NS(C)(=O)=O (stereo not drawn) [Example 264]	6.5 nM	–	338 nM	–	–
CC(C)(O)[C@H](F)CNC(=O)c1cnc(-n2ccc3cc(C#N)cnc32)cc1N[C@H]1CC[C@](C)(O)CC1 [Example 62, 6-(5-cyano-1H-pyrrolo[2,3-b]pyridin-1-yl)-N—((R)-2-fluoro-3-hydroxy-3-methylbutyl)-4-(((trans)-4-hydroxy-4-methylcyclohexyl)amino)nicotinamide]	3.6 nM	143 nM	–	–	–
CC(=O)N1CCC(Nc2cc(-n3ccc4cc(C#N)cnc43)ncc2C(=O)NC[C@@H](F)C(C)(C)O)CC1 [Example 470]	–	–	–	8 nM	EC50 [1, 3]: 240 nM
CC(C)CCC(=O)NCc1cnc2c(ccn2-c2cc(NC(C)C)c(C(=O)NC[C@@H](F)C(C)(C)O)cn2)c1 [Example 512]	–	–	–	3.5 nM	IC50 [1, 3]: 541 nM
CS(=O)(=O)NCCNC(=O)c1cnc(-n2ccc3cc(C#N)cnc32)cc1NC1CCOCC1 [Example 479]	–	–	–	5.7 nM	EC50 [1, 3]: 144 nM; IC50 [1, 3]: 835 nM
CC(C)Nc1cc(-n2ccc3cnc(N4CC[C@H](O)C4)nc32)ncc1C(=O)NC[C@@H](F)C(C)(C)O [Example 189, N—((R)-2-fluoro-3-hydroxy-3-methylbutyl)-6-(2-((S)-3-hydroxypyrrolidin-1-yl)-7H-pyrrolo[2,3-d]pyrimidin-7-yl)-4-(isopropylamino)nicotinamide]	4.8 nM	75 nM	–	–	–
CC(C)Nc1cc(-n2ccc3cnc(N(C)C)nc32)ncc1C(=O)NC[C@@H](F)C(C)(C)O [Example 185, (R)-6-(2-(Dimethylamino)-7H-pyrrolo[2,3-d]pyrimidin-7-yl)-N-(2-fluoro-3-hydroxy-3-methylbutyl)-4-(isopropylamino)nicotinamide]	3.4 nM	350 nM	–	–	–
CC(C)Nc1cc(-n2ncc3cc(C#N)cnc32)ncc1C(=O)NCCC1CCN(C)CC1 [Example 266]	2.6 nM	–	73 nM	–	–

Compound	IC50 (IRAK4; IRAK4 Inhibition Assay)	EC50 [1, 2]	IC50 [1, 2]	IC50 (IRAK4; IRAK4 0.6 nM)	other results
CC(C)Nc1cc(-n2ncc3cnc(NC[C@@H](F)C(C)(C)O)nc32)ncc1C(=O)NC[C@@H](F)C(C)(C)O [Example 334]	18.5 nM	460 nM	–	–	–
CC(C)(O)CCNC(=O)c1cnc(-n2ccc3cc(C#N)cnc32)cc1NC1CCOCC1 [Example 12, 6-(5-cyano-1H-pyrrolo[2,3-b]pyridin-1-yl)-N-(3-hydroxy-3-methylbutyl)-4-((tetrahydro-2H-pyran-4-yl)amino)nicotinamide]	1.7 nM	122 nM	–	–	–
CC(C)(F)[C@H](F)CNC(=O)c1cnc(-n2cnc3cc(C#N)cnc32)cc1NC1COC1 [Example 344]	13.5 nM	–	144 nM	–	–
CC(C)(O)[C@H](F)CNC(=O)c1cnc(-n2ccc3cc(C#N)cnc32)cc1NCC(F)(F)F [Example 5, (R)-6-(5-cyano-1H-pyrrolo[2,3-b]pyridin-1-yl)-N-(2-fluoro-3-hydroxy-3-methylbutyl)-4-((2,2,2-trifluoroethyl)amino)nicotinamide]	2.3 nM	78 nM	95 nM	–	–
CC(C)(C)Nc1cc(-n2ncc3cc(C#N)cnc32)ncc1C(=O)NC[C@@H](F)C(C)(C)O [Example 286]	1.7 nM	–	158 nM	–	–
CC(C)Nc1cc(-n2ccc3cc(C#N)cnc32)ncc1C(=O)NCCNS(=O)(=O)N1CCOCC1 [Example 452]	–	–	–	5.2 nM	EC50 [1, 3]: 700 nM; IC50 [1, 3]: 252 nM
CC(C)Nc1cc(-n2ncc3cc(C#N)cnc32)ncc1C(=O)NCCC1(O)CCC(C)(O)CC1 (stereo not drawn) [Example 277]	5.9 nM	–	251 nM	–	–
CC(C)Nc1cc(-n2ncc3cc(C#N)cnc32)ncc1C(=O)NCCC1CCN(C(=O)CC#N)CC1 [Example 275]	8 nM	–	115 nM	–	–
CC(C)(O)[C@H](F)CNC(=O)c1cnc(-n2ncc3cc(C#N)cnc32)cc1N[C@H]1CC[C@](C)(O)CC1 [Example 608]	–	–	–	12.6 nM	EC50 [1, 3]: 318 nM
CC(C)(O)[C@H](F)CNC(=O)c1cnc(-n2ncc3cc(C#N)cnc32)cc1N[C@H]1CC[C@H](NC(=O)c2ccccc2F)CC1 [Example 634]	–	–	–	3.9 nM	IC50 [1, 3]: 277 nM
CC(C)Nc1cc(-n2cnc3cc(C#N)cnc32)ncc1C(=O)NC[C@@H](F)C(C)(C)F [Example 342]	8.7 nM	–	423 nM	–	–
CNC(=O)[C@H](F)CNC(=O)c1cnc(-n2ncc3cc(C#N)cnc32)cc1NC(C)C [Example 229]	9.6 nM	137 nM	1420 nM	–	–
CC(C)(O)[C@H](F)CNC(=O)c1cnc(-n2ccc3cncnc32)cc1NC1CCOCC1 [Example 40, (R)—N-(2-fluoro-3-hydroxy-3-methylbutyl)-6-(7H-pyrrolo[2,3-d]pyrimidin-7-yl)-4-((tetrahydro-2H-pyran-4-yl)amino)nicotinamide]	2 nM	175 nM	175 nM	–	–
CC(C)(O)[C@H](F)CNC(=O)c1cnc(-n2ccc3cc(C#N)cnc32)cc1Nc1ccc2ncsc2c1 [Example 64, (R)-4-(benzo[d]thiazol-6-ylamino)-6-(5-cyano-1H-pyrrolo[2,3-b]pyridin-1-yl)-N-(2-fluoro-3-hydroxy-3-methylbutyl)nicotinamide]	1.7 nM	93 nM	–	–	–
CC(C)(O)[C@H](F)CNC(=O)c1cnc(-n2ccc3cc(C#N)cnc32)cc1Nc1cnn(C2CCOCC2)c1 [Example 373]	2.4 nM	–	71 nM	–	–
CCNC(=O)[C@H]1CC[C@H](NC(=O)c2cnc(-n3ccc4cc(C#N)cnc43)cc2NC(C)C)CC1 [Example 92, 6-(5-cyano-1H-pyrrolo[2,3-b]pyridin-1-yl)-N-((trans)-4-(ethylcarbamoyl)cyclohexyl)-4-(isopropylamino)nicotinamide]	1.7 nM	79 nM	–	–	–
CC(C)(O)[C@H](F)CNC(=O)c1cnc(-n2ncc3cc(F)cnc32)cc1NC1CCC(F)C1 (single isomer, unassigned) [Example 619]	–	–	–	4 nM	EC50 [1, 4]: 119 nM
CC(C)c1cc(Nc2cc(-n3ncc4cc(C#N)cnc43)ncc2C(=O)NC[C@@H](F)C(C)(C)O)[nH]n1 [Example 406]	–	–	–	4.8 nM	IC50 [1, 3]: 66 nM
CC(=O)N[C@H]1CC[C@H](NC(=O)c2cnc(-n3ncc4cc(C#N)c(N)nc43)cc2NC(C)C)CC1 [Example 317]	3.8 nM	–	172 nM	–	–
CC(C)Nc1cc(-n2ncc3cc(C#N)c(N)nc32)ncc1C(=O)NC1(C)CC1 [Example 322]	6.7 nM	–	159 nM	–	–
